Legend:
Veronica = test: Post-emergence test, Veronica; assay type: in vivo; details: 30 g per hectare, after three weeks
Method: (§1) To prepare an expedient active compound preparation, 1 part by weight of active compound is mixed with the specified amount of solvent, the specified amount of emulsifier is added and the concentrate is diluted with water to the desired concentration.
(§2) Test plants which have a height of 5-15 cm are sprayed with the active compound preparation in such a way that the amounts of active compound per unit area desired in each case are applied. After three weeks, the degree of damage of the plants is evaluated in % damage in comparison with the development of the untreated control.
(§3) 0% denotes no effect (as untreated control)
(§4) 100% denotes total destruction

wheat [1] = test: Post-emergence test, wheat; assay type: in vivo; details: 30 g per hectare, after three weeks, cultivated plant
Method: as §1, §2, §3, §4

Chenopodium = test: Post-emergence test, Chenopodium; assay type: in vivo; details: 30 g per hectare, after three weeks
Method: as §1, §2, §3, §4

Abutilon = test: Post-emergence test, Abutilon; assay type: in vivo; details: 30 g per hectare, after three weeks
Method: as §1, §2, §3, §4

wheat [2] = test: Pre-emergence test, wheat; assay type: in vivo; details: 60 g per hectare, after three weeks, cultivated plant
Method: as §1
Seeds of the test plants are sown in standard soil and are watered after 24 hours with the active compound preparation. The amount of water per unit area is expediently kept constant during this. The active compound concentration in the preparation is not important, only the application rate of the active compound per unit area is critical. After three weeks, the degree of damage of the plants is evaluated in % damage in comparison with the development of the untreated control. In the evaluation:
as §3, §4

[3] = test system: horseradish leaf beetle larvae Phaedon cochleariae; test: Phaedon larvae test; assay type: in vivo; details: after 3 days, active compound concentration 0.1%, cabbage leaves dipped
Method: Solvent: 7 parts by weight of dimethylformamide
Emulsifier: 1 part by weight of alkylaryl polyglycol ether
To produce an expedient active compound preparation, 1 part by weight of active compound is mixed with the specified amount of solvent and the specified amount of emulsifier and the concentrate is diluted with water to the desired concentration.
Cabbage leaves (Brassica oleracea) are treated by dipping them into the active compound preparation of the desired concentration and populated with horseradish leaf beetle larvae Phaedon cochleariae, as long as the leaves are still moist.
After the desired time, the destruction is determined in %. In the determination, 100% denotes that all beetle larvae have been destroyed; 0% denotes that no beetle larvae have been destroyed.

Ipomoea = test: Post-emergence test, Ipomoea; assay type: in vivo; details: 30 g per hectare, after three weeks
Method: as §1, §2, §3, §4

Solanum = test: Post-emergence test, Solanum; assay type: in vivo; details: 30 g per hectare, after three weeks
Method: as §1, §2, §3, §4

Row | SMILES | degree of damage of the plants in % damage, Veronica (Veronica) | degree of damage of the plants in % damage, wheat (wheat [1]) | degree of damage of the plants in % damage, Chenopodium (Chenopodium) | degree of damage of the plants in % damage, Abutilon (Abutilon) | degree of damage of the plants in % damage, wheat (wheat [2]) | degree of destruction [3] | degree of damage of the plants in % damage, Ipomoea (Ipomoea) | degree of damage of the plants in % damage, Solanum (Solanum) | melting point
1 | Cn1c(C(F)(F)F)cc(=O)n(-c2cc(F)c(C#N)cc2F)c1=S [Example 3, 1-(4-cyano-2,5-difluoro-phenyl)-3,6-dihydro-2-thioxo-6-oxo-3-methyl-4-trifluoromethyl-1(2H)-pyrimidine] | 100% | 5% | 100% | 100% | 0% | 100% | 100% | 100% | 
2 | CCS(=O)(=O)Nc1cc(-n2c(=O)cc(C(F)(F)F)n(C)c2=S)c(F)cc1C#N [Example 4, 1-(4-cyano-2-fluoro-5-ethylsulphonylamino-phenyl)-3,6-dihydro-2-thio-6-oxo-3-methyl-4-trifluoromethyl-1(2H)-pyrimidine] | 100% | 5% | 100% | 100% | 0% |  | 100% | 100% | 
3 | CCS(=O)(=O)N(c1cc(-n2c(=O)cc(C(F)(F)F)n(C)c2=S)c(F)cc1C#N)S(C)(=O)=O [Example 32, 1-(4-cyano-2-fluoro-5-(N-ethylsulphonyl-N-methylsulphonyl-amino)-phenyl)-3,6-dihydro-2-thio-6-oxo-3-methyl-4-trifluoromethyl-1(2H)-pyrimidine] |  |  |  |  |  |  |  |  | 122 °C
4 | CCS(=O)(=O)N(C)c1cc(-n2c(=O)cc(C(F)(F)F)n(C)c2=S)c(F)cc1C#N [Example 33, 1-(4-cyano-2-fluoro-5-(N-ethylsulphonyl-N-methyl-amino)-phenyl)-3,6-dihydro-2-thio-6-oxo-3-methyl-4-trifluoromethyl-1(2H)-pyrimidine] |  |  |  |  |  |  |  |  | 68 °C

Reference: patent US6339044B1, “N-P-Cyanoaryl nitrogen-containing heterocycles having pendent sulfur-containing groups” (Bayer Aktiengesellschaft, priority 1993, dated 2002)
